The text below walks through data of ChEMBL document CHEMBL4376881, “Toggling Preassembly with Single-Site Mutation Switches the Cytotoxic Mechanism of Cationic Amphipathic Peptides” (J Med Chem, 2020).

Calls of active or inactive are those of the source. The rule behind the calls is not given here.

Data set [1] in a line: Drug localization in mitochondria of human HeLa cells using FITC-labeled compound at cytotoxic IC50 level incubated for 30 mins by Mito-tracker red dye based confocal laser scanning microscopy. The settings on record: 0.5 h.
Data set [2] has as its system HeLa. The data set can be described thus: Suppression of mitochondrial membrane potential in human HeLa cells at cytotoxic IC50 level incubated for 15 mins by rhodamine 123 dye based flow cytometry. In kind it is functional, cell-based. For orientation: A flow cytometer gives signals particle by particle.
Data set [3] deals with HeLa. The data set can be described thus: Induction of membrane lysis in human HeLa cells assessed as increase in number of enlarged outward budding vesicles at cytotoxic IC50 level incubated for 15 mins by annexin V-FITC and by propidium iodide staining. The data set is classed as functional, cell-based.
A short description of data set [4]: Drug localization in lysosome of human HeLa cells using FITC-labeled compound at cytotoxic IC50 level incubated for 30 mins by Lysotracker red dye based confocal laser scanning microscopy. In kind it is subcellular. The conditions noted are these: 0.5 h.
Data set [5] is described as follows: Drug localization in endoplasmic reticulum of human HeLa cells using FITC-labeled compound at cytotoxic IC50 level incubated for 30 mins by ER-tracker red dye based confocal laser scanning microscopy. The data set is classed as subcellular. The conditions noted are these: 0.5 h.
Data set [6] deals with HeLa. The data set can be described thus: Cytotoxicity against human HeLa cells assessed as reduction in cell viability at 4 degC at 1 to 16 uM incubated for 1 hr by MTT assay. The data set is classed as functional, cell-based.
Data set [7] concerns K562. The data set can be described thus: Cytotoxicity against human K562 cells assessed as reduction in cell viability incubated for 1 hr by MTT assay. The settings on record: K562, 1 h. The data set is classed as functional, cell-based. Background: Formazan colour is commonly taken as a measure of viable cells.
For data set [8], the system named is HeLa. Put plainly: Induction of apoptosis in human HeLa cells assessed as increase in caspase 3/7 activity at cytotoxic IC50 level using Ac-DEVD- pNA substrate incubated for 15 to 60 mins. The data set is classed as functional, cell-based.
Data set [9] relates to A549. Put plainly: Cytotoxicity against human A549 cells assessed as reduction in cell viability incubated for 1 hr by MTT assay. The settings on record: A549, 1 h. In kind it is functional, cell-based.
Data set [10] in a line: Drug localization in nucleoli of human HeLa cells using FITC-labeled compound at cytotoxic IC50 level incubated for 30 mins by confocal laser scanning microscopy. In kind it is subcellular. The conditions noted are these: 0.5 h.
Data set [11] deals with HeLa. Put plainly: Cytotoxicity against human HeLa cells assessed as reduction in cell viability incubated for 1 hr by MTT assay. In kind it is functional, cell-based.
Data set [12] in a line: Selectivity index, ratio of HC10 for induction of hemolysis in human erythrocytes assessed as hemoglobin release incubated for 2 hrs by UV absorbance based method to IC50 for cytotoxicity against human MCF7 cells assessed as reduction in cell viability incubated for 1 hr by MTT assay.
Data set [13] has as its system MCF7. The data set can be described thus: Cytotoxicity against human MCF7 cells assessed as reduction in cell viability incubated for 1 hr by MTT assay. In kind it is functional, cell-based. The settings on record: MCF7, 1 h.
The test system of data set [14] is HL-60. Put plainly: Cytotoxicity against human HL60 cells assessed as reduction in cell viability incubated for 1 hr by MTT assay. The settings on record: HL-60, 1 h. The data set is classed as functional, cell-based.
The nature of data set [15]: Selectivity index, ratio of HC10 for induction of hemolysis in human erythrocytes assessed as hemoglobin release incubated for 2 hrs by UV absorbance based method to IC50 for cytotoxicity against human A549 cells assessed as reduction in cell viability incubated for 1 hr by MTT assay.
In data set [16] the test system is HeLa. Put plainly: Induction of oxidative stress in human HeLa cells assessed as increase in reactive oxygen species at cytotoxic IC50 level incubated for 15 mins by CellROX deep red reagent based flow cytometry. In kind it is functional, cell-based.
Data set [17] can be described thus: Selectivity index, ratio of HC10 for induction of hemolysis in human erythrocytes assessed as hemoglobin release incubated for 2 hrs by UV absorbance based method to IC50 for cytotoxicity against human K562 cells assessed as reduction in cell viability incubated for 1 hr by MTT assay.
Data set [18] is described as follows: Self aggregation assessed as formation of nano fibers of varying lengths at 32 uM by atomic force microscopy. In kind it is physicochemical.
Data set [19] is described as follows: Induction of hemolysis in human erythrocytes assessed as hemoglobin release incubated for 2 hrs by UV absorbance based method. The data set is classed as cell-based. The conditions noted are these: erythrocyte.
Data set [20] is described as follows: Selectivity index, ratio of HC10 for induction of hemolysis in human erythrocytes assessed as hemoglobin release incubated for 2 hrs by UV absorbance based method to IC50 for cytotoxicity against human HeLa cells assessed as reduction in cell viability incubated for 1 hr by MTT assay.
Data set [21] is described as follows: Selectivity index, ratio of HC10 for induction of hemolysis in human erythrocytes assessed as hemoglobin release incubated for 2 hrs by UV absorbance based method to IC50 for cytotoxicity against human HL60 cells assessed as reduction in cell viability incubated for 1 hr by MTT assay.
Data set [22] is described as follows: Self aggregation up to 128 uM in PBS buffer by ANS fluorescent probe based aggregate incorporation assay. In kind it is physicochemical.
Data set [23] concerns HeLa. Put plainly: Induction of membrane lysis in human HeLa cells assessed as loss of membrane integrity at cytotoxic IC50 level incubated for 15 mins by Propidium iodide staining based confocal laser scanning microscopy relative to control. In kind it is functional.
A short description of data set [24]: Self aggregation at >8 uM in PBS buffer by ANS fluorescent probe based aggregate incorporation assay. In kind it is physicochemical.
Data set [25] has as its system HeLa. Put plainly: Cytotoxicity against human HeLa cells assessed as reduction in cell viability at cytotoxic IC50 in presence of 1.5 to 150 ng/mL sodium heparin incubated for 1 hr by MTT assay. The data set is classed as functional, cell-based.
Data set [26] is described as follows: Drug localization in cell membrane of human HeLa cells using FITC-labeled compound at cytotoxic IC50 level incubated for 30 mins by confocal laser scanning microscopy. The data set is classed as cell membranes. The conditions noted are these: 0.5 h.

For the substance H-KELKLLKKLLKLLK-OH, the Drug uptake result in data set [1], in [4], in [5] and in data set [10] was “Active” in each case. Also, the result in data set [2], in data set [8] and in [16] was Active. Further, the result in data set [3], in [6] and in data set [23] was inactive. Also, the half-maximal inhibitory concentration (IC50) (as a rule, the point on the concentration scale where inhibition reaches its midpoint) in data set [7] was 2.4 µM; in data set [9] it was 13.5 µM; in [11], 6.8 µM; in data set [13], 14.5 µM; in [14], 3.3 µM. Moreover, the “Selectivity Index” value in data set [12] is reported as 4.25; in [15], 4.58; in [17], 25.7; in data set [20] it was 9.13; in data set [21], 18.7. Besides, the Activity result in data set [18] and in [22] was “Not Active” in each case. The HC10 in data set [19] was 61.7 µM.
Consider H-KKLKLLKKLLKLLK-OH, for which the IC50 turned out to be 1.3 µM in [7]; 3.5 µM in [9]; 3.4 µM in data set [11]; 6.2 µM in data set [13]; 1.7 µM in data set [14]. The “Selectivity Index” value was 3.14 in data set [12]; 5.53 in [15]; 15 in data set [17]; 5.74 in [20]; 11.5 in [21]. The HC10 in data set [19] is 19.5 µM. Further, the Activity result in data set [22] was “Not Active”. Moreover, the result in data set [23] was inactive.
Take H-KLEKLLKKLLKLLK-OH: in data set [11], the IC50 was 6.1 µM. Moreover, in data set [22], the Activity result is reported as “Not Active”. In addition, the result in data set [23] was inactive.
Consider H-KLLELLKKLLKLLK-OH, for which the concentration for half-maximal inhibition (IC50) in data set [11] was determined as 5.3 µM. For the same substance, the result in data set [22] was Active. Also, the result in data set [23] was Active.
With H-KLLKELKKLLKLLK-OH, the half-inhibitory concentration (IC50) in [11] is 8.6 µM. Also, the Activity entry in [22] is reported as “Not Active”. The outcome in [23] was inactive.
H-KLLKLEKKLLKLLK-OH: the IC50 in data set [11] was above 64 µM. Further, in [22], the Activity entry is “Not Active”.
The like results for H-KLLKLLKKELKLLK-OH were, in that order, above 64 µM and “Not Active”.
Regarding H-KLLKLLKKLEKLLK-OH, the IC50 in [11] was found to be 11.2 µM. Also, in data set [22], the Activity entry was “Not Active”. Besides, the result in data set [23] was inactive.
H-KLLKLLKKLLKELK-OH: the IC50 in data set [11] came to 5.1 µM. For the same substance, the Activity result in [22] is reported as “Not Active”. Moreover, the result in data set [23] was inactive.
In the same order, the values of H-KLLKLLKKLLKLEK-OH are 21.8 µM, “Not Active” and “inactive”.
With H-KLLKLLKKLLKLLK-OH, the outcome in data set [3] and in data set [25] was Active. For the same substance, the IC50 in data set [7] was 1.4 µM; in [9], 3.7 µM; in [11], 4.6 µM; in data set [13] it was 4.3 µM; in [14] it was 2.5 µM. In addition, the values for the Activity entry in data set [24], in data set [18] and in [23] were “Dose-dependent effect”, “Active” and 50%, respectively. Moreover, the “Selectivity Index” value in [12] was 0.12; in data set [15] it was 0.14; in data set [17], 0.37; in [20], 0.11; in data set [21], 0.21. For the same substance, in [26], the Drug uptake entry is given as “Active”. Moreover, the HC10 in data set [19] was 0.52 µM.
As for H-KQLKLLKKLLKLLK-OH, the half-inhibitory concentration (IC50) in data set [7] is 1.8 µM; in data set [9], 6.3 µM; in [11], 5.2 µM; in data set [13], 9 µM; in data set [14], 2 µM. For the same substance, the “Selectivity Index” value in data set [12] is 3.95; in data set [15], 5.59; in data set [17], 19.7; in data set [20], 6.77; in [21] it was 17.8. Further, the HC10 in [19] worked out at 35.5 µM. Besides, in [22], the Activity entry is on record as “Not Active”. Further, the outcome in data set [23] was inactive.
